In brackets after ≈: the same amount, converted by molar mass. Like-named read-outs stand apart in the source and are kept apart here. Non-standard residues stand in square brackets, D forms with d. Residues, ends and D or L forms follow the SMILES beside them. Nleu = CC(C)CNCC(=O)O; Nlys = NCCCCNCC(=O)O
Legend:
A. baumannii ATCC19606 = assay: microbe, parasite or virus in culture
How it was run: (§1)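 Read-out was visible growth after MTT addition, the MIC being the lowest inhibitory peptide concentration. Bacteria grown to log phase in LB were exposed in MH medium to peptide from 64 μg/mL in twofold dilutions for 15-18h at 37°C.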

K. pneumoniae NCTC 418 = assay: microbe, parasite or virus in culture
How it was run: as §1

P. aeruginosa PAO1 = assay: microbe, parasite or virus in culture; conditions: for MIC P. aeruginosa PAO1: supplement CSV
How it was run: as §1

S. aureus COL (MRSA) = assay: microbe, parasite or virus in culture; conditions: for MIC S. aureus COL (MRSA): supplement CSV
How it was run: as §1

human red blood cells = conditions: red cells of human, 6 h
E. coli W3110 = assay: microbe, parasite or virus in culture; conditions: for MIC E. coli W3110: supplement CSV
How it was run: as §1

E. cloacae = assay: microbe, parasite or virus in culture; conditions: for MIC E. cloacae: supplement CSV
Protocol: (§2) Minimum inhibitory concentration assay
(§3) Antimicrobial activity was assayed against P. aeruginosa PAO1, K. pneumoniae NCTC418, E. coli W3110, A. baumannii ATCC 19606, methicillin-resistant S. aureus COL (MRSA), and for selected peptides on P. aeruginosa PA14 and the polymyxin-B-resistant derivative PA14 2P4, as well as the clinical isolates ZEM-1A and ZEM9A, K. pneumoniae OXA-48, S. aureus Newman, Enterobacter cloacae and Burkholderia cenocepacia. The minimal inhibitory concentration (MIC) was determined by using broth microdilution method. A colo ny of bacteria was picked and grown in Luria-Bertani (LB) medium overnight at 37°C. For E. coli BW25113 sbmA::kan the medium was supplemented with 25 mg/L of kanamycin. The next day, the culture was then regrown in LB medium to log phase (OD600 = 0.6 to 0.8), which lasted approximately 4 h, and diluted to an OD600 of 0.022 in the desired medium. Stock solutions of 1 mg/mL of the samples were prepared in sterilized milliQ water and diluted to the beginning concentration of 64 μg/mL in 300 μL Mueller Hinton (MH)-medium. The diluted samples were added to first well of 96-well microtiter plate (TPP, untreated, Faust Laborbedarf, AG, Schaffhausen) and diluted serially by ½. Finally, 4 μL of the bacterial suspension was inoculated into the sample solutions (150 μL/well) with a final inoculation of about 5∙10^5 CFU/mL. The plates were then incubated at 37°C for 15-18h. For each assay, sterility (broth only) and growth control (broth with bacterial inoculum, without antibiotics) were checked with two columns in the plate. The next day, 15 μL of 3-(4,5-dimethylthiazol-2-yl)-2,5-diphenyltetrazolium bromide (MTT) was added to each well of the plate, such a way that MIC was defined as the lowest concentration of the peptide that inhibited visible growth of the tested

K. pneumoniae OXA-48 = assay: microbe, parasite or virus in culture; conditions: for MIC K. pneumoniae OXA-48: supplement CSV
Protocol: as §2, §3

[1] = test system: P. aeruginosa PA14 2P4 (pmrB); assay: microbe, parasite or virus in culture; conditions: for MIC P. aeruginosa PA14 2P4: supplement CSV
Protocol: as §2, §3

P. aeruginosa PA14 = assay: microbe, parasite or virus in culture; conditions: for MIC P. aeruginosa PA14: supplement CSV
Protocol: as §2, §3

P. aeruginosa ZEM-1A = assay: microbe, parasite or virus in culture; conditions: for MIC P. aeruginosa ZEM-1A: supplement CSV
Protocol: as §2, §3

P. aeruginosa ZEM9A = assay: microbe, parasite or virus in culture; conditions: for MIC P. aeruginosa ZEM9A: supplement CSV
Protocol: as §2, §3

[2] = test system: P. aeruginosa PA14 4.13 (phoQ); conditions: for MIC P. aeruginosa PA14 4.13: supplement CSV
[3] = test system: P. aeruginosa PA14 4.18 (pmrB); conditions: for MIC P. aeruginosa PA14 4.18: supplement CSV
[4] = supplement CSV, 12.5% MH pH 7.4
[5] = polymyxin B resistant strain, 12.5% MHB pH 7.4, 16–20 h at 37 °C
[6] = polymyxin B resistant strain, full MHB pH 7.4, 16–20 h at 37 °C

## CC(C)C[C@H](NC(=O)CN(CC(C)C)C(=O)[C@H](CC(C)C)NC(=O)CN(CCCCN)C(=O)[C@H](CC(C)C)NC(=O)CN(CC(C)C)C(=O)[C@H](CCCCN)NC(=O)CN(CC(C)C)C(=O)[C@H](CC(C)C)NC(=O)CN(CCCCN)C(=O)[C@@H](N)CCCCN)C(N)=O [EB9, reference compound] (H-K[Nlys]L[Nleu]K[Nleu]L[Nlys]L[Nleu]L-NH2; N-terminus assumed)
A. baumannii ATCC19606; ATCC19606
  MIC A. baumannii, 12.5% MHB: 16 µg/mL (≈ 12.1 µM)
  MIC A. baumannii, Full MHB: > 32 µg/mL
K. pneumoniae NCTC 418; NCTC 418
  MIC K. pneumoniae, 12.5% MHB: >32 / >32 μg/mL
  MIC K. pneumoniae, Full MHB: >32 / >32 μg/mL
K. pneumoniae NCTC 418; NCTC 418, 4 h, pH 7.4
  MIC K. pneumoniae NCTC418: >32 µg/mL
P. aeruginosa PAO1; PAO1
  MIC P. aeruginosa, 12.5% MHB: 4 µg/mL (≈ 3.03 µM)
  MIC P. aeruginosa, Full MHB: 32 µg/mL (≈ 24.2 µM)
S. aureus COL (MRSA); COL
  MIC S. aureus, 12.5% MHB: >32 / 32 μg/mL
  MIC S. aureus, Full MHB: >32 / 32 μg/mL
Human red blood cells
  MHC human red blood cells: >2000 µg/mL

## CC(C)C[C@H](NC(=O)[C@H](CC(C)C)NC(=O)[C@H](CC(C)C)NC(=O)[C@@H](CCCCN)NC(=O)[C@H](CC(C)C)NC(=O)[C@H](CC(C)C)NC(=O)[C@@H](CCCCN)NC(=O)[C@H](CC(C)C)NC(=O)[C@H](CC(C)C)NC(=O)[C@@H](CCCCN)NC(=O)[C@H](N)CCCCN)C(N)=O [ln69, reference compound] (H-[dK][dK]LL[dK]LL[dK]LLL-NH2)
A. baumannii ATCC19606; A. baumannii ATCC19606, 12.5% Müller–Hinton medium, 16–20 h at 37 °C
  MIC A. baumannii, 12.5% MHB: 2 µg/mL (≈ 1.51 µM)
A. baumannii ATCC19606; A. baumannii ATCC19606, full Müller–Hinton medium, 16–20 h at 37 °C
  MIC A. baumannii, Full MHB: 2 to 4 µg/mL
A. baumannii ATCC19606; [4]
  MIC A. baumannii ATCC19606: 2 µg/mL (≈ 1.51 µM)
E. coli W3110; E. coli W3110, 12.5% Müller–Hinton medium, 16–20 h at 37 °C, broth microdilution
  MIC E. coli, 12.5% MHB: 2 µg/mL (≈ 1.51 µM)
E. coli W3110; E. coli W3110, full Müller–Hinton medium, 16–20 h at 37 °C, broth microdilution
  MIC E. coli, Full MHB: 4 µg/mL (≈ 3.03 µM)
E. coli W3110; 12.5% MH pH 7.4
  MIC E. coli W3110: 2 µg/mL (≈ 1.51 µM)
E. coli W3110; full MH pH 7.4
  MIC E. coli W3110: 4 µg/mL (≈ 3.03 µM)
K. pneumoniae NCTC 418; [4]
  MIC K. pneumoniae NCTC418: 4 µg/mL (≈ 3.03 µM)
K. pneumoniae NCTC 418; supplement CSV, full MH pH 7.4
  MIC K. pneumoniae NCTC418: 8 µg/mL (≈ 6.05 µM)
P. aeruginosa PAO1; 12.5% MH pH 7.4
  MIC P. aeruginosa PAO1: 2 µg/mL (≈ 1.51 µM)
P. aeruginosa PAO1; full MH pH 7.4
  MIC P. aeruginosa PAO1: 4 µg/mL (≈ 3.03 µM)
S. aureus COL (MRSA); S. aureus COL (MRSA), 12.5% Müller–Hinton medium, 16–20 h at 37 °C
  MIC S. aureus, 12.5% MHB: 2 µg/mL (≈ 1.51 µM)
S. aureus COL (MRSA); S. aureus COL (MRSA), full Müller–Hinton medium, 16–20 h at 37 °C
  MIC S. aureus, Full MHB: 16 µg/mL (≈ 12.1 µM)
S. aureus COL (MRSA); 12.5% MH pH 7.4
  MIC S. aureus COL (MRSA): 2 µg/mL (≈ 1.51 µM)
S. aureus COL (MRSA); full MH pH 7.4
  MIC S. aureus COL (MRSA): 16 µg/mL (≈ 12.1 µM)
E. cloacae; 12.5% MHB pH 7.4, 16–20 h at 37 °C
  MIC E. cloacae, 12.5% MHB: 2 µg/mL (≈ 1.51 µM)
E. cloacae; full MHB pH 7.4, 16–20 h at 37 °C
  MIC E. cloacae, full MHB: 4 µg/mL (≈ 3.03 µM)
E. cloacae; 12.5% MH pH 7.4
  MIC E. cloacae: 2 µg/mL (≈ 1.51 µM)
E. cloacae; full MH pH 7.4
  MIC E. cloacae: 4 µg/mL (≈ 3.03 µM)
K. pneumoniae OXA-48; carbapenem-resistant, 12.5% MHB pH 7.4, 16–20 h at 37 °C
  MIC K. pneumoniae OXA-48, 12.5% MHB: 4/4 μg/mL
K. pneumoniae OXA-48; carbapenem-resistant, full MHB pH 7.4, 16–20 h at 37 °C
  MIC K. pneumoniae OXA-48, full MHB: 4/4 μg/mL
K. pneumoniae OXA-48; 12.5% MH pH 7.4
  MIC K. pneumoniae OXA-48: 4 µg/mL (≈ 3.03 µM)
K. pneumoniae OXA-48; full MH pH 7.4
  MIC K. pneumoniae OXA-48: 4 µg/mL (≈ 3.03 µM)
[1]; [5]
  MIC P. aeruginosa PA14 2P4 (pmrB), 12.5% MHB: 4 µg/mL (≈ 3.03 µM)
[1]; [6]
  MIC P. aeruginosa PA14 2P4 (pmrB), full MHB: 32 µg/mL (≈ 24.2 µM)
[1]; 12.5% MH pH 7.4
  MIC P. aeruginosa PA14 2P4: 4 µg/mL (≈ 3.03 µM)
[1]; full MH pH 7.4
  MIC P. aeruginosa PA14 2P4: 32 µg/mL (≈ 24.2 µM)
P. aeruginosa PA14; 12.5% MHB pH 7.4, 16–20 h at 37 °C, two different duplicate MIC determinations
  MIC P. aeruginosa PA14, 12.5% MHB: 2/2 μg/mL
P. aeruginosa PA14; full MHB pH 7.4, 16–20 h at 37 °C, two different duplicate MIC determinations
  MIC P. aeruginosa PA14, full MHB: 2/2 μg/mL
P. aeruginosa PA14; 12.5% MH pH 7.4
  MIC P. aeruginosa PA14: 2 µg/mL (≈ 1.51 µM)
P. aeruginosa PA14; full MH pH 7.4
  MIC P. aeruginosa PA14: 2 µg/mL (≈ 1.51 µM)
P. aeruginosa ZEM-1A; clinical isolate, 12.5% MHB pH 7.4, 16–20 h at 37 °C, cells marked c: single measurement (in duplicates)
  MIC P. aeruginosa ZEM-1A, 12.5% MHB: 4 µg/mL (≈ 3.03 µM)
P. aeruginosa ZEM-1A; clinical isolate, full MHB pH 7.4, 16–20 h at 37 °C, cells marked c: single measurement (in duplicates)
  MIC P. aeruginosa ZEM-1A, full MHB: 1 µg/mL (≈ 0.757 µM)
P. aeruginosa ZEM-1A; 12.5% MH pH 7.4
  MIC P. aeruginosa ZEM-1A: 4 µg/mL (≈ 3.03 µM)
P. aeruginosa ZEM-1A; full MH pH 7.4
  MIC P. aeruginosa ZEM-1A: 1 µg/mL (≈ 0.757 µM)
P. aeruginosa ZEM9A; clinical isolate, full MHB pH 7.4, 16–20 h at 37 °C
  MIC P. aeruginosa ZEM9A, full MHB: 4 to 8 µg/mL
P. aeruginosa ZEM9A; 12.5% MH pH 7.4
  MIC P. aeruginosa ZEM9A: 2 µg/mL (≈ 1.51 µM)
P. aeruginosa ZEM9A; full MH pH 7.4
  MIC P. aeruginosa ZEM9A: 4 to 8 µg/mL
Human red blood cells
  MHC human red blood cells: 1000 µg/mL
[2]; [5]
  MIC P. aeruginosa PA14 4.13 (phoQ), 12.5% MHB: 2 µg/mL (≈ 1.51 µM)
[2]; [6]
  MIC P. aeruginosa PA14 4.13 (phoQ), full MHB: 4 µg/mL (≈ 3.03 µM)
[2]; 12.5% MH pH 7.4
  MIC P. aeruginosa PA14 4.13: 2 µg/mL (≈ 1.51 µM)
[2]; full MH pH 7.4
  MIC P. aeruginosa PA14 4.13: 4 µg/mL (≈ 3.03 µM)
[3]; [5]
  MIC P. aeruginosa PA14 4.18 (pmrB), 12.5% MHB: 2 µg/mL (≈ 1.51 µM)
[3]; [6]
  MIC P. aeruginosa PA14 4.18 (pmrB), full MHB: 16 µg/mL (≈ 12.1 µM)
[3]; 12.5% MH pH 7.4
  MIC P. aeruginosa PA14 4.18: 2 µg/mL (≈ 1.51 µM)
[3]; full MH pH 7.4
  MIC P. aeruginosa PA14 4.18: 16 µg/mL (≈ 12.1 µM)
